Experimental data reported in patent publication US12605371B2, “Combination therapy for cancer” (The Board of Trustees of the Leland Stanford Junior …, priority 2020, dated 2026).
“Also recorded” adds a separate entry of the source. Each block holds one molecule with its values, some of them ahead of it.

Columns and labels:
B16 cells [1] = experiment: B16 pulmonary metastasis model, mice fed DE chow; type: in vivo, mouse
Protocol: Animals were monitored daily and sacrificed after 2 weeks. […] B16 metastasis model: 0.5×10^6 B16 cells were injected via tail vein into mice. After sacrifice, the lung was isolated and the number of metastatic nodules on surface was counted on both sides, before analyzing the left lobe for melanin determination. The left lobe of lung from each mouse was incubated in 1N NaOH/10% DMSO for 2 hr at 80° C. before centrifugation at 12,000 rpm for 10 min at room temperature. The absorbance at 470 nm of the supernatant was measured and compared to a standard of synthetic melanin (Sigma, St. Louis, MO). Lung was weighed before the start of process and melanin content was expressed as μg/mg protein determined by protein assay of lung tissue.

B16 tumors = experiment: B16 subcutaneous (flank) tumor model, mice fed dabigatran etexilate chow; type: in vivo, mouse
Protocol: B16 subcutaneous tumor inoculation: B16 cells were grown until confluent and 2×10^6 cells were inoculated subcutaneously into WT, OPN-KI and OPN-KO mice. Mice were monitored daily for tumor growth. Tumor size was measured and volume calculated using the equation (width×width×length)/2. Animals were euthanized using CO2 and blood collected by cardiac puncture and tumors were isolated carefully. Blood was centrifuged at 2500 rpm for 20 min to prepare plasma and stored at −80° C. Tumors were weighed and measured. Part of the tumor was stored in formaldehyde for immunohistochemistry, part of it was frozen and stored at −80° C. for preparation of tumor lysates for OPN ELISAs. […] Animals were monitored daily and sacrificed after 2 weeks.

[2] = test system: factor Xa-protease-activated receptor 2 signaling in TAMs; conditions: in vivo; cited from earlier work
B16 cells [3] = experiment: Apoptosis assay (camptothecin, Annexin V), B16 cells; type: cell-based, mouse; conditions: 10 nM, 20 μM camptothecin, 4 hr
Protocol: Apoptosis assay: 1×10^5 B16 cells were cultured in DMEM without serum overnight before addition of 20 μM camptothecin (Abcam, Burlingame, CA) in the presence of BSA or OPN fragments (10 nM). Cells were then incubated for 4 hr before addition of 200 μl of binding buffer. The plate was centrifuged at 400 g for 5 min and supernatant discarded. Annexin V FITC stain (Cayman chemicals, Ann Arbor, MI) was added to the cells and incubated at RT for 10 min in the dark. Cells were centrifuged as described above and 100 μl of binding buffer was added to each cell and fluorescence intensity measured at 485/535 nm (excitation/emission). Apoptotic index was calculated by dividing the camptothecin-treated cells with untreated cells.

B16 cells [4] = experiment: Cell migration assay (transwell), B16 cells; type: cell-based, mouse; conditions: 10 nM, 24 hr
Protocol: Cell migration assay: 10^5 B16 cells were placed in the upper chamber of a 6.5 mm transwell with a pore size of 8.0 μm (Sigma, XX). Cells were allowed to settle before the lower chamber was filled with BSA or various OPN fragments (10 nM) in presence of 0.2 mM MnCl2 (Sigma, St Louis, MO) and incubated at 37° C. for 24 hr. Cells that migrated to the lower chamber were centrifuged and resuspended into 90 ul of 1×HBSS (Gibco Life Technologies, Langley, OK) with 10 μl of CCK-8 staining solution (Dojindo Molecular Technologies Inc., Rockville, MD). Cells were incubated for 2 hr before measuring absorbance at 450 nm.

B16 cells [5] = experiment: Cell adhesion assay, B16 cells; type: cell-based, mouse; conditions: wells coated at 20 nM
Protocol: Cell adhesion assay: Wells in 96-well plate was coated with either BSA or different OPN fragments at a concentration of 20 nM in coating buffer (Gibco Life Technologies, Langley, OK) and incubated at 4° C. overnight. The plate was then washed thrice with PBS before blocking with 3% BSA for 1 hr. The cells were washed thrice with 1×HBSS containing 0.2 mM MnCl2. 2×10^6 B16 or RAW cells were added to the wells and incubated at 37° C. for 1 hr. Wells were washed and cells fixed with absolute ethanol for 20 min before staining with 0.1% crystal violet. Cells were washed repeatedly with PBS until no violet color was visible, lysed with 0.5% Triton X-100 and absorbance determined at 570 nm.

RAW cells = experiment: PGE2 assay, RAW cells; type: cell-based, mouse; conditions: 10 nM
Protocol: PGE2 assay: 5×10^5 RAW cells were plated onto 6-well plate in serum free medium with either BSA or various OPN fragments (10 nM). Cells were cultured overnight before collecting the media and determining PGE2 by ELISA (Enzo, Farmingdale, NY).

thrombin = thrombin (Homo sapiens, UniProt P00734); experiment: Thrombin treatment of E. coli produced GST-OPN and GST-OPNR153A, SDS-PAGE; type: biochemical; conditions: thrombin 10 nM, time course
Protocol: FIGS. 1A-1D: B16 tumors grow slower in OPN-KO and OPN-KI than WT mice in the flank model. FIG. 1A. Model of OPN cleavages and its functional modulation by thrombin and carboxypeptidase N or B2. OPN-FL=OPN-full length (SEQ ID NO:5); OPN-R=OPN-Arg (SEQ ID NO:6); OPN-L=OPN-Leu (SEQ ID NO:8). DC=dendritic cells. FIG. 1B. Time course of thrombin treatment (10 nM) of E. coli produced GST-OPN and GST-OPNR153A analyzed by SDS-PAGE. FL=full length, NTF=N-terminal fragment, CTF=C-terminal fragment (SEQ ID NO:7). FIG. 1C. Daily determination of B16 tumor volume grown on WT, OPN-KI and OPN-KO mice. FIG. 1D. B16 tumor weight after sacrifice. All data are shown as mean±SEM. Statistical significance was calculated by one-way ANOVA followed by Tukey's multiple comparison test.
The OPN-KI (OPNR153A) mice, similar to OPN-KO mice, were fertile and healthy before challenge, without any phenotypic changes observable in CBC, liver function and kidney function (FIGS. 9 and 10)

[6] = parenteral; particularly limited small cell lung cancers; cited from earlier work
B16 cells [7] = conditions: in vivo; cited from earlier work
[8] = OPN-KI or OPN-KO mice, trend, compared to untreated mice of same genotype
[9] = WT mice, compared to control WT mice, 13 days after inoculation

Molecule: CCCCCCOC(=O)N=C(N)c1ccc(NCc2nc3cc(C(=O)N(CCC(=O)OCC)c4ccccn4)ccc3n2C)cc1 [DE, dabigatran etexilate]
melanin content of lungs (B16 cells [1]; [8]): decreased
pulmonary metastases (B16 cells [1]; [8]): fewer
melanin content of lungs (B16 cells [1]; [9]): reduced
metastatic nodules/lung (B16 cells [1]; [9]): fewer
effect on B16 local tumor growth, weight and volume (in words) (B16 tumors; OPN-KI (and OPN-KO) mice): did not further reduce; also recorded: no effect
tumor weight after sacrifice (B16 tumors; OPN-KI mice, DE-containing chow, in g): 0.8±0.9
tumor volume after sacrifice (B16 tumors; OPN-KI mice, DE-containing chow, mean±SEM): 0.73±0.3 cm^3
B16 tumor growth (in words) (B16 tumors; WT mice): tumor suppression; also recorded: grew slower
tumor volume after sacrifice (B16 tumors; WT mice, DE-containing chow from 4 days before B16 inoculation until sacrifice, mean±SEM): 1.0±0.2 cm^3
tumor weight after sacrifice (B16 tumors; WT mice, DE-containing chow, mean±SEM): 1.0 ± 0.2 g

Molecule: O=C(NC[C@H]1CN(c2ccc(N3CCOCC3=O)cc2)C(=O)O1)c1ccc(Cl)s1 [rivaroxaban]
antitumor immunity (in words) [2]: promote antitumor immunity

Molecule: OPN-CTF: C-terminal OPN fragment after thrombin cleavage (SEQ ID NO:7) (SKSKKFRR; OPN-CTF)
anti-apoptotic effect on B16 cells (in words) (B16 cells [3]): no anti-apoptotic effect
B16 chemotaxis/migration relative to OPN-FL (in words: significantly increased or not) (B16 cells [4]): comparable to OPN-FL

Molecule: OPN-FL: recombinant full length osteopontin (SEQ ID NO:5) (RGDSVVYGLRSKSKKFRR; OPN-FL)
reduction of B16 cell apoptosis compared to BSA (B16 cells [3]): ~3 fold
B16 cell migration compared to BSA (in words) (B16 cells [4]): increased migration

Molecule: OPN-L: OPN-R with C-terminal arginine removed by CPN or CPB2 (SEQ ID NO:8) (RGDSVVYGL; OPN-L)
reduction of B16 cell apoptosis compared to BSA (B16 cells [3]): ~3 fold
B16 chemotaxis/migration relative to OPN-FL (in words: significantly increased or not) (B16 cells [4]): not
B16 cell adhesion compared to OPN-R (in words) (B16 cells [5]): reduced adhesion

Molecule: OPN-R: thrombin-cleaved OPN N-terminal fragment ending in Arg (SEQ ID NO:6) (RGDSVVYGLR; OPN-R)
reduction of B16 cell apoptosis compared to BSA (B16 cells [3]): ~3 fold
B16 cell migration compared to BSA (in words) (B16 cells [4]): increased migration
secretion of PGE2 by RAW cells (in words) (RAW cells): significantly enhanced

thrombin cleavage (in words) (thrombin): resistant to thrombin cleavage
Molecule: OPNR153A: mutant OPN with arginine in the thrombin cleavage site mutated to alanine (R153A), expressed in E. coli

Molecule: heparin
survival of cancer patients (in words) [6]: survival benefit

Molecule: hirudin
metastasis of B16 cells (in words) (B16 cells [7]): prevented metastasis
